# Measured values from US20100204140A1, “USE OF A PEPTIDE AS A THERAPEUTIC AGENT” (priority 2007, published 2010).
# System: drug-resistant Mycobacterium tuberculosis
# Details: peptide 10 micrograms per ml, seven days
smiles,measurement,value
CSCC[C@H](NC(=O)[C@H](CC(C)C)NC(=O)CNC(=O)[C@@H](NC(=O)[C@H](Cc1ccccc1)NC(=O)[C@H](Cc1ccccc1)NC(=O)[C@H](CC(=O)O)NC(=O)[C@H](Cc1c[nH]cn1)NC(=O)[C@H](CCSC)NC(=O)[C@@H](N)CC(=O)O)C(C)C)C(N)=O [Neurokinin B],% inhibition,0.0%
